Source: article PMC2883770 (Journal of natural products, 2009)

What was measured:
HT-29 cells = experiment: Mitochondrial transmembrane potential; type: cell-based, human; details: 2 h treatment, JC-1 dye
[1] = test system: HT-29 human colon cancer cells; experiment: Cytotoxicity assay against HT-29 cells; type: cell-based
[2] = test system: MCF-7 human breast cancer cells; experiment: Cytotoxicity assay against MCF-7 cells; type: cell-based

| SMILES | ED50 in mitochondrial transmembrane potential assay (HT-29 cells) | ED50 against HT-29 cells [1] | ED50 against MCF-7 cells [2] |
| --- | --- | --- | --- |
| CC(OC(=O)/C=C/c1ccc(O)c(O)c1)C(=O)[C@H]1C[C@@H]1[C@H](O)[C@H]1CC=CC(=O)O1 (stereo partly drawn) [Compound 3, Brevipolide C] | 0.0085 µM |  |  |
| CC(=O)O[C@@H]([C@H]1C[C@@H]1C(=O)C(C)OC(=O)/C=C\c1ccc(O)cc1)[C@H]1CC=CC(=O)O1 (stereo partly drawn) [Compound 2, Brevipolide B] |  | 6.1 µM | 6.1 µM |
| CC(=O)O[C@@H]([C@H]1C[C@@H]1C(=O)C(C)OC(=O)/C=C/c1ccc(O)cc1)[C@H]1CC=CC(=O)O1 (stereo partly drawn) [Compound 1, Brevipolide A] |  | 5.8 µM | > 10 µM |
| COc1ccc(-c2oc3cc(OC)c(O)c(O)c3c(=O)c2OC)cc1O [Compound 8, 5,6,3′-trihydroxy-3,7,4′-trimethoxyflavone] | 0.31 µM | 3.6 µM |  |
| CC(OC(=O)/C=C\c1ccc(O)cc1)C(=O)[C@H]1C[C@@H]1[C@H](O)[C@H]1CC=CC(=O)O1 (stereo partly drawn) [Compound 6, Brevipolide F] |  | 7.5 µM | 6.7 µM |
